The values that follow are results of earlier work, collected in patent US20260335248A1, “ANTIFUNGAL AGENT ENCAPSULATED IN A LIPID NANOCRYSTAL FOR TREATING MUCORMYCOSIS” (MATINAS BIOPHARMA NANOTECHNOLOGIES, INC., priority 2022, published 2026).

The series relates to mucormycosis. As to conditions: Luo et al., 2013.

On to `CC[C@@H]([C@H](C)O)n1ncn(-c2ccc(N3CCN(c4ccc(OC[C@@H]5CO[C@@](Cn6cncn6)(c6ccc(F)cc6F)C5)cc4)CC3)cc2)c1=O` [Posaconazole, posaconazole], for which the “fungal burdens in lungs and brain compared with placebo” value was “effective in reducing the fungal burdens in lungs and brain”.
